Data: patent US20250197359A1, “CANNABINOID RECEPTOR MODULATING COMPOUNDS” (The U.S.A., as Represented by the Secretary, Department of …, priority 2022, published 2025)

Target: CB1 (UniProt P21554)
Assay: CB1 radioligand binding assay
Design: species or system human
Conditions: read-out: Ki (CB1)
Description: The target compounds were evaluated in vitro at the human CB1 receptor, stably expressed into Chinese hamster ovary (CHO) cells by utilizing radioligand binding studies.
The binding constant for the synthesized compounds were determined by using radioligand binding assay in mouse brain membranes as well as the target compounds were evaluated in vitro at the human CB1 receptor, stably expressed into Chinese hamster ovary (CHO) cells as well as mouse brain membrane CB1. […]

Ki | Structure (SMILES)
785 nM | CCC(N/C(=N/S(=O)(=O)c1ccc(C(F)(F)F)cc1)N1CCC(c2ccccc2)C(c2ccc(Cl)cc2)=N1)C(N)=O (single isomer, unassigned) [Compound 32a, (Z)-2-(3-(4-chlorophenyl)-4-phenyl-N′-((4-(trifluoromethyl)phenyl)sulfonyl)-1,4,5,6-tetrahydropyridazine-1-carboximidamido) butanamide]
120 nM | C/C(N)=N/C(=N/S(=O)(=O)c1ccc(C(F)(F)F)cc1)N1CCC(c2ccccc2)C(c2ccc(F)cc2)=N1 (stereo not shown) [Compound 10zc, (Z)—N—((Z)-1-aminoethylidene)-3-(4-fluorophenyl)-4-phenyl-N′-((4-(trifluoromethyl)phenyl)sulfonyl)-5,6-dihydropyridazine-1 (4H)-carboximidamide]
210 nM | CS/C(N)=N\C(=N\S(=O)(=O)c1ccc(Cl)cc1)N1CCC(c2ccccc2)C(c2ccc(Cl)cc2)=N1 (stereo not shown) [Compound 11a, methyl (Z)—N′—((Z)-(3-(4-chlorophenyl)-4-phenyl-5,6-dihydropyridazin-1 (4H)-yl)(((4-chlorophenyl)sulfonyl)imino)methyl)carbamimidothioate]
234 nM | CS/C(N)=N\C(=N\S(=O)(=O)c1cccc(C(F)(F)F)c1)N1CCC(c2ccccc2)C(c2ccc(Cl)cc2)=N1 (stereo not shown) [Compound 11c, methyl (Z)—N′—((Z)-(3-(4-chlorophenyl)-4-phenyl-5,6-dihydropyridazin-1 (4H)-yl)(((3-(trifluoromethyl)phenyl)sulfonyl)imino)methyl)carbamimidothioate]
151 nM | CS/C(N)=N\C(=N\S(=O)(=O)c1ccc(OC(F)(F)F)cc1)N1CCC(c2ccccc2)C(c2ccc(Cl)cc2)=N1 (stereo not shown) [Compound 11d, methyl (Z)—N′—((Z)-(3-(4-chlorophenyl)-4-phenyl-5,6-dihydropyridazin-1 (4H)-yl)(((4-(trifluoromethoxy)phenyl)sulfonyl)imino)methyl)carbamimidothioate]
138 nM | CS/C(N)=N\C(=N\S(=O)(=O)c1ccc(C#N)cc1)N1CCC(c2ccccc2)C(c2ccc(Cl)cc2)=N1 (stereo not shown) [Compound 11e, methyl (Z)—N′—((Z)-(3-(4-chlorophenyl)-4-phenyl-5,6-dihydropyridazin-1 (4H)-yl)(((4-cyanophenyl)sulfonyl)imino)methyl)carbamimidothioate]
590 nM | CS/C(N)=N\C(=N\S(=O)(=O)c1ccc2ccccc2c1)N1CCC(c2ccccc2)C(c2ccc(Cl)cc2)=N1 (stereo not shown) [Compound 11f, methyl (Z)—N′—((Z)-(3-(4-chlorophenyl)-4-phenyl-5,6-dihydropyridazin-1 (4H)-yl)((naphthalen-2-ylsulfonyl)imino)methyl)carbamimidothioate]
1600 nM | CS/C(N)=N\C(=N\S(=O)(=O)c1ccccc1)N1CCC(c2ccccc2)C(c2ccc(Cl)cc2)=N1 (stereo not shown) [Compound 11g, methyl (Z)—N′—((Z)-(3-(4-chlorophenyl)-4-phenyl-5,6-dihydropyridazin-1 (4H)-yl)((phenylsulfonyl)imino)methyl)carbamimidothioate]
1070 nM | COc1ccc(S(=O)(=O)/N=C(/N=C(/N)SC)N2CCC(c3ccccc3)C(c3ccc(Cl)cc3)=N2)cc1 (stereo not shown) [Compound 11h, methyl (Z)—N′—((Z)-(3-(4-chlorophenyl)-4-phenyl-5,6-dihydropyridazin-1 (4H)-yl)(((4-methoxyphenyl)sulfonyl)imino)methyl)carbamimidothioate]
24.6 nM | CC(=O)N/C(N)=N\C(=N\S(=O)(=O)c1ccc(C#N)cc1)N1CCC(c2ccccc2)C(c2ccc(Cl)cc2)=N1 (stereo not shown) [Compound 13a, N—((Z)—N′—((Z)-(3-(4-chlorophenyl)-4-phenyl-5,6-dihydropyridazin-1 (4H)-yl)(((4-cyanophenyl)sulfonyl)imino)methyl)carbamimidoyl) acetamide]
5 nM | CC(=O)N/C(N)=N\C(=N\S(=O)(=O)c1ccc(C(F)(F)F)cc1)N1CCC(c2ccccc2)C(c2ccc(Cl)cc2)=N1 (stereo not shown) [Compound 14, N—((Z)—N′—((Z)-(3-(4-chlorophenyl)-4-phenyl-5,6-dihydropyridazin-1 (4H)-yl)(((4-(trifluoromethyl)phenyl)sulfonyl)imino)methyl)carbamimidoyl) acetamide]
117 nM | O=S(=O)(/N=C(\N=C1/CCCN1)N1CCC(c2ccccc2)C(c2ccc(Cl)cc2)=N1)c1ccc(C(F)(F)F)cc1 (stereo not shown) [Compound 17, (E)-3-(4-chlorophenyl)-4-phenyl-N—((E)-pyrrolidin-2-ylidene)-N′-((4-(trifluoromethyl)phenyl)sulfonyl)-5,6-dihydropyridazine-1 (4H)-carboximidamide]

Structure (SMILES) | Ki
C[Se]/C(N)=N\C(=N\S(=O)(=O)c1ccc(OC(F)(F)F)cc1)N1CCC(c2ccccc2)C(c2ccc(Cl)cc2)=N1 (stereo not shown) [Compound 12d, methyl (Z)—N′—((Z)-(3-(4-chlorophenyl)-4-phenyl-5,6-dihydropyridazin-1 (4H)-yl)(((4-(trifluoromethoxy)phenyl)sulfonyl)imino)methyl)carbamimidoselenoate] | 194 nM
C[Se]/C(N)=N\C(=N\S(=O)(=O)c1ccc(C#N)cc1)N1CCC(c2ccccc2)C(c2ccc(Cl)cc2)=N1 (stereo not shown) [Compound 12e, methyl (Z)—N′—((Z)-(3-(4-chlorophenyl)-4-phenyl-5,6-dihydropyridazin-1 (4H)-yl)(((4-cyanophenyl)sulfonyl)imino)methyl)carbamimidoselenoate] | 179 nM
C[Se]/C(N)=N\C(=N\S(=O)(=O)c1ccc2ccccc2c1)N1CCC(c2ccccc2)C(c2ccc(Cl)cc2)=N1 (stereo not shown) [Compound 12f, methyl (Z)—N′—((Z)-(3-(4-chlorophenyl)-4-phenyl-5,6-dihydropyridazin-1 (4H)-yl)((naphthalen-2-ylsulfonyl)imino)methyl)carbamimidoselenoate] | 317 nM
C[Se]/C(N)=N\C(=N\S(=O)(=O)c1ccccc1)N1CCC(c2ccccc2)C(c2ccc(Cl)cc2)=N1 (stereo not shown) [Compound 12g, methyl (Z)—N′—((Z)-(3-(4-chlorophenyl)-4-phenyl-5,6-dihydropyridazin-1 (4H)-yl)((phenylsulfonyl)imino)methyl)carbamimidoselenoate] | 2800 nM
COc1ccc(S(=O)(=O)/N=C(/N=C(/N)[Se]C)N2CCC(c3ccccc3)C(c3ccc(Cl)cc3)=N2)cc1 (stereo not shown) [Compound 12h, methyl (Z)—N′—((Z)-(3-(4-chlorophenyl)-4-phenyl-5,6-dihydropyridazin-1 (4H)-yl)(((4-methoxyphenyl)sulfonyl)imino)methyl)carbamimidoselenoate] | 1100 nM
C[Se]/C(N)=N/C(=N/S(=O)(=O)c1ccc(C(F)(F)F)cc1)N1CCC(c2ccccc2)C(c2ccc(F)cc2)=N1 (stereo not shown) [Compound 12i, methyl (E)-N′—((Z)-(3-(4-fluorophenyl)-4-phenyl-5,6-dihydropyridazin-1 (4H)-yl)(((4-(trifluoromethyl)phenyl)sulfonyl)imino)methyl)carbamimidoselenoate] | 110 nM

Same assay, conditions: read-out: Ki (CB1) in nM

Structure (SMILES) | Ki
C[Se]/C(N)=N\C(=N\S(=O)(=O)c1ccc(Cl)cc1)N1CCC(c2ccccc2)C(c2ccc(Cl)cc2)=N1 (stereo not shown) [Compound 12a, methyl (Z)—N′—((Z)-(3-(4-chlorophenyl)-4-phenyl-5,6-dihydropyridazin-1 (4H)-yl)(((4-chlorophenyl)sulfonyl)imino)methyl)carbamimidoselenoate] | 45 nM
